Test results reported in patent US20240350485A1 (TARIS Biomedical LLC, priority 2021, published 2024).

What was measured:
[1] = rats dosed orally, 2 and 7 hours
Experimental: Extracellular signal-regulated kinase (ERK)1/2 phosphorylation was assessed as a PD marker for FGFR kinase inhibition in tumors at various time points post administration/installation.

in vitro [2] = details: bladder tumor tissue
[3] = Solubility as a function of pH; format: physicochemical; details: normal urine pH range of 5.5 to 7
[4] = rat, in vivo
Source text: (§3) Rat bladders (5 groups of rats, n=3/group) were surgically catheterized under anesthesia and the catheter was externalized, tunneled subcutaneously, and connected to a vascular access harness (VAH) in the neck. […] Plasma and bladder samples were collected at all time points.

ERK1/2 phosphorylation = assay: pERK/ERK in orthotopic bladder UM-UC-1 tumors by capillary immunoblotting; format: in vivo, nude rats
Source text: The signals for pERK1/2 were divided by the total ERK1/2 signal in the same sample and the mean of the pERK1/2 values for the corresponding vehicle-treated samples was set at a relative value of 1. At each timepoint, the pERK/ERK ratio for each tumor sample was divided by the mean pERK/ERK ratio derived from the corresponding control samples. There was 1 exception, as there were no vehicle-treated samples at the 120-hour timepoint, the pERK/ERK ratios for the erdafitinib-treated samples at the 120-hour timepoint were divided by the mean of the 48-hour vehicle-treated group.

Stability in human urine = format: in vitro ADME; details: freshly collected human urine, 37° C.
Experimental: (§1) At the end of 6-hours post-dialysis incubation, drug was analyzed and the recovery was calculated against the spiked concentrations.

[5] = In vitro permeation screening of device materials; format: physicochemical; design: key: “O” is permeable (suitable for the stripe material); “A” is practically impermeable; “X” is impermeable (suitable for a base material, i.e., the non-stripe portion of a system body)
Experimental: A number of polymeric materials were tested to determine their suitability as a material of construction of an elastic system body for release of various erdafitinib formulations in a permeation-controlled release system. The materials included silicone, several thermoplastic polyurethane (TPUs) manufactured by Lubrizol Life Science (Bethlehem, PA).
In general, materials that are impermeable to erdafitinib, the API, are suitable for use as the base material in permeation systems. Materials that are permeable to the API are suitable for use as the stripe material in permeation systems. Platinum cured silicone, thermoplastic polyurethanes (TPUs), and ethylene vinyl acetate (EVA) materials were screened (Table 10). The test articles were filled with formulated API (powder or tablets), sealed, placed in foil pouches, and gamma irradiated (nominal 35 kGy). The systems were placed into simulated urine (pH 6.8), stored at 37° C., and sampled periodically. The amount of API in each sample was determined by high-performance liquid chromatography (HPLC) analysis.

[6] = tested on: orthotopic UM-UC-1 bladder tumors; assay: Continuous bladder perfusion, orthotopic UM-UC-1 bladder cancer model
Experimental: Perfusion studies: The bladders of the study animals were cannulated on Day 1 and the animals were allowed to recover for 3 days. On Day 5, UM-UC-1 cells (2×10^6 cells) were injected into the lateral wall of each bladder. […] Based on the in vitro results, target urine concentrations of 0.5, 1.0, and 5.0 μg/mL were used in the perfusion experiments. Body weight, daily urine production, and daily water consumption were recorded. At necropsy, a plasma sample, bladder photographs, and bladder weight measurements were recorded.
The percent reduction in relative tumor weight between the control group and the drug perfusion groups was determined as an initial measure of efficacy. Bladder tissue and tumor samples were also submitted for analysis of FGFR signaling activity by determining the phosphorylated fibroblast growth factor receptor substrate (FRS)2a levels and the pERK to ERK ratio.

Stability in rat urine = format: in vitro ADME; details: freshly collected rat urine, 37° C.
Experimental: as §1

[7] = urine
Source text: On Day −7 a catheter was surgically placed in the bladder of each animal. The distal end of the catheter was anchored to a subcutaneous site and attached to a vascular access port (VAP). The port was secured and the animals were allowed to recover. Each animal was subsequently fitted with a portable infusion pump that was attached to the bladder catheter via the VAP. […] All excreted urine was collected in 24-hour intervals through Day 6 or 8. Blood samples were collected daily on study Days 1 to 8. Bladder tissue samples were collected from each animal at necropsy.

in vitro [8] = details: minipig, bladder tissue
[9] = tested on: orthotopic RT-112 bladder tumor; assay: Continuous bladder perfusion, RT-112 implanted into the bladder wall
Source text: Perfusion studies: The experimental study design was the same as described in Example 11 (FIG. 12), except that the perfusions were continued until the time of necropsy on Day 14.

[10] = In vitro protein binding in human urine; format: in vitro ADME
Experimental: (§2) Albuminuria/proteinuria had minimal effect on % free form in urine.
as §1

in vivo = details: female, Sprague-Dawley, rat
Source text: as §3

in vitro [11] = details: human, bladder tissue
[12] = In vitro release (IVR) of permeation prototypes in simulated urine; format: physicochemical; details: highest release rates at pH 5, significantly reduced at pH 8
Experimental: The drug formats evaluated included erdafitinib free base, erdafitinib free base plus HP-β-CD and erdafitinib salts, e.g. HCl salt.
The pH range for normal human urine is in the 5.5 to 7 range, but some disease states can result in higher urine pH values (pH 8). […] The base material for this tubing could be either AR-75A-B20 or AC-4075A-B20.
Drug and device constituents are described in Tables 11 and 12, respectively. In vitro release (IVR) testing was performed with both prototypes, using simulated urine at 3 different pH ranges as the release media: pH 5, 6.8, and 8 (n=3 systems tested in each media).

[13] = In vitro protein binding in minipig urine; format: in vitro ADME
Experimental: as §2, §1

[14] = In vitro protein binding in rat urine; format: in vitro ADME
Experimental: as §2, §1

[15] = In vitro release of prototype permeation systems in simulated urine (Table 5); format: physicochemical; details: simulated urine at various pHs
in vitro [16] = details: rat, bladder tissue
[17] = Stability in minipig urine; format: in vitro ADME; details: freshly collected minipig urine, 37° C.
Experimental: as §1

Q: For `COc1cc(OC)cc(N(CCNC(C)C)c2ccc3ncc(-c4cnn(C)c4)nc3c2)c1` [Erdafitinib, N-(3,5-dimethoxyphenyl)-N′-(1-methylethyl)-N-[3-(1-methyl-1H-pyrazol-4-yl)quinoxalin-6-yl]ethane-1,2-diamine], which “exposure levels in s.c. tumors lower than in orthotopic tumors” value [1] is on record?
A: Its value is “Roughly 2 fold”.

Q: What about the fraction unbound (in vitro [2]) of the same compound?
A: Its fraction unbound is 0.4.

Q: What about the solubility [3] of the same compound?
A: The solubility was “significant pH-dependent solubility”.

Q: What about the C96 h [4] of the same compound?
A: Its C96 h is “BQL”.

Q: What about the C120 h [4] of the same compound?
A: The C120 h was “BQL”.

Q: And the “ERK1/2 phosphorylation in UM-UC-1 tumors” value (ERK1/2 phosphorylation; 6 mg/kg intravesical and 20 mg/kg oral doses, 2 hours post dosing)?
A: Its value is “statistically significant decrease”.

Q: What about the pERK/ERK (ERK1/2 phosphorylation; 2 hours post dose, IVES, 6 mg/kg, relative to vehicle group) of the same compound?
A: Its pERK/ERK is 0.62.

Q: And the pERK/ERK (ERK1/2 phosphorylation; 2 hours post dose, p.o., 20 mg/kg, relative to vehicle group)?
A: The pERK/ERK was 0.52.

Q: And the pERK/ERK (ERK1/2 phosphorylation; 7 hours post dose, IVES, 6 mg/kg, relative to vehicle group)?
A: Its pERK/ERK is 0.60.

Q: And the pERK/ERK (ERK1/2 phosphorylation; 7 hours post dose, p.o., 20 mg/kg, relative to vehicle group)?
A: The pERK/ERK was 0.61.

Q: What about the pERK/ERK (ERK1/2 phosphorylation; 48 hours post dose, IVES, 6 mg/kg, relative to vehicle group) of the same compound?
A: Its pERK/ERK is 0.71.

Q: What about the pERK/ERK (ERK1/2 phosphorylation; 48 hours post dose, p.o., 20 mg/kg, relative to vehicle group) of the same compound?
A: Its pERK/ERK is 0.76.

Q: What about the pERK/ERK (ERK1/2 phosphorylation; 120 hours post dose, IVES, 6 mg/kg, relative to 48-hour vehicle group) of the same compound?
A: The pERK/ERK was 0.98.

Q: And the pERK/ERK (ERK1/2 phosphorylation; 120 hours post dose, p.o., 20 mg/kg, relative to 48-hour vehicle group)?
A: Its pERK/ERK is 1.22.

Q: What about the stability in urine (Stability in human urine; 6 hours) of the same compound?
A: Its stability in urine is “sufficiently stable”.

Q: And the recovery at 6 h (Stability in human urine; human urine spiked at 1, 3, and 5 μg/mL)?
A: The recovery at 6 h was 89 to 98%.

Q: What about the “In Vitro Permeation” value ([5]; material EVA (CoTran 9712)) of the same compound?
A: Its value is “Δ”.

Q: What about the “In Vitro Permeation” value ([5]; material Silicone (MED-4750)) of the same compound?
A: The value was “X”.

Q: What about the “In Vitro Permeation” value ([5]; material TPU (AC-4075A)) of the same compound?
A: Its value is “X”.

Q: And the “In Vitro Permeation” value ([5]; material TPU (AR-62A))?
A: Its value is “X”.

Q: What about the “In Vitro Permeation” value ([5]; material TPU (EG-80A)) of the same compound?
A: The value was “Δ”.

Q: And the “In Vitro Permeation” value ([5]; material TPU (HP-60D-35))?
A: The value was “◯”.

Q: What about the “In Vitro Permeation” value ([5]; material TPU (HP-93A-100)) of the same compound?
A: The value was “◯”.

Q: And the “In Vitro Permeation” value ([5]; material TPU (PC-3575A))?
A: The value was “X”.

Q: What about the “In Vitro Permeation” value ([5]; material TPU (TT-1074A)) of the same compound?
A: The value was “X”.

Q: And the “percentage change in body weight vs vehicle control” value ([6]; 0.5, 1.0, and 5.0 μg/mL treatment groups)?
A: Its value is “Statistically non-significant difference”.

Q: And the “bladder weight vs vehicle control” value ([6]; 0.5, 1.0 and 5 μg/mL nominal urine concentrations)?
A: The value was “significant dose-related decrease”.

Q: What about the cage side observations ([6]; all treatment groups) of the same compound?
A: The cage side observations was “no visible signs of abnormal behavior or clinical symptoms”.

Q: And the stability in urine (Stability in rat urine; 6 hours)?
A: Its stability in urine is “sufficiently stable”.

Q: What about the recovery at 6 h (Stability in rat urine; rat urine spiked at 1, 3, and 5 μg/mL) of the same compound?
A: The recovery at 6 h was 90 to 95%.

Q: What about the “Daily erdafitinib recoveries, of average daily amount administered” value [7] of the same compound?
A: The value was 15.7%.

Q: And the fraction unbound (in vitro [8])?
A: The fraction unbound was 0.79.

Q: What about the “bladder weight vs vehicle control” value ([9]; 1.0 μg/mL perfusate concentration) of the same compound?
A: Its value is “significant bladder weight reduction”.

Q: What about the “bladder weight decrease vs vehicle control” value ([9]; 0.25 and 0.5 μg/mL dose groups) of the same compound?
A: The value was “not statistically significant”.

Q: And the “percentage change in body weight vs vehicle control” value ([9]; 0.5, 1.0, and 5.0 μg/mL treatment groups, except Group 4 on Day 11)?
A: The value was “Statistically non-significant difference”.

Q: And the “body weight loss, maximum mean values” ([9]; erdafitinib-treated group, Day 11)?
A: The value was “up to −3%”.

Q: What about the “Percent erdafitinib free in urine” value [10] of the same compound?
A: The value was 95%.

Q: What about the concentration at 96 h (in vivo; C96 h) of the same compound?
A: Its concentration at 96 h is 56.9 ng/mL.

Q: And the concentration at 120 h (in vivo; C120 h)?
A: The concentration at 120 h was 10.7 ng/mL.

Q: And the fraction unbound (in vitro [11])?
A: Its fraction unbound is 0.39.

Q: What about the “pH dependency of release by drug format” value [12] of the same compound?
A: The value was “significant pH dependency”.

Q: And the “Percent erdafitinib free in urine” value [13]?
A: The value was 97%.

Q: What about the “Percent erdafitinib free in urine” value [14] of the same compound?
A: Its value is 84%.

Q: What about the “Observations (release profile)” value ([15]; device AR-62A base with HP-60D-35 stripe) of the same compound?
A: The value was “Release profile shows more pH”.

Q: What about the “Observations (release profile)” value ([15]; device EG-80A base with HP-60D-35 stripe) of the same compound?
A: The value was “Release profile shows more pH”.

Q: And the fraction unbound (in vitro [16])?
A: The fraction unbound was 0.33.

Q: And the stability in urine ([17]; 6 hours)?
A: Its stability in urine is “sufficiently stable”.

Q: What about the recovery at 6 h ([17]; minipig urine spiked at 1, 3, and 5 μg/mL) of the same compound?
A: The recovery at 6 h was 92 to 93%.
